Source: PMC8587750, “Structural Optimization and Biological Activity of Pyrazole Derivatives: Virtual Computational Analysis, Recovery Assay and 3D Culture Model as Potential Predictive Tools of Effectiveness against Trypanosoma cruzi” (Molecules, 2021)
Like-named read-outs stand apart in the source and are kept apart here.

Legend:
[1] = test system: intracellular amastigotes of T. cruzi; assay: Activity against intracellular amastigotes in infected Vero cells (Dm28c-Luc, 72 h); type: cell-based, Trypanosoma cruzi; details: for Intracellular Amastigotes SI: CC50 of Vero cells/IC50 of intracellular amastigote; for IC50 / IC90: Trypanosoma cruzi; for IC50: Vero; for IC90: read-out: Trypanocidal Activity Intracellular Amastigotes IC90; for fold drop in activity on moving Cl or Br to the meta position: 3b compared to 3g, 3k compared to 3j
Excerpt: (§1) T. cruzi Dm28c clone genetically modified to express luciferase, kindly provided by Dr. Cristina Henriques from Oswaldo Cruz Institute–Fiocruz, was used in the drug assays. Trypomastigotes were harvested from T. cruzi-infected Vero cultures supernatants at 4th days post-infection (dpi) and used in the phenotypic screening assay. For intracellular amastigotes assays, Vero cells (2D and 3D cultures) were infected at a ratio of 10:1 parasites/host cells.
The effect of the pyrazole derivatives against intracellular amastigotes was also evaluated after 72 h treatment (37 °C) with compound concentrations ranging from 0.04–100 µM [13]. Parasite viability, measured by luminescent signal, was determined after luciferin (300 µg/mL) addition. IC50 and IC90 values were calculated by linear regression. Selectivity index (SI) was calculated as the ratio of the CC50 to IC50 values. The non-toxic concentration of DMSO (less than 1% v/v) was used in all assays. A minimum of three independent assays was carried out in duplicate.

[2] = Cytotoxicity in vitro assay (ATP, CellTiter Glo, 72 h); type: cell-based; details: African green monkey, Vero cells
Method: Vero cells, obtained from the Rio de Janeiro Cell Bank (BCRJ code 0245), were cultured in RPMI-1640 supplemented with 10% fetal bovine serum (FBS) and 1 mM L-glutamine, as previously described. Vero cells were used for drug screening assays and to obtain trypomastigote forms of T. cruzi.
Vero cells were used as a cellular model to analyze the toxic effect of pyrazole derivatives, series 1(a–l), 2(a–l), 3(a–n), 4(a–c), and 5(a–c), and Benznidazole (Bz) on mammalian cells. Briefly, the cells, plated on 96-well white opaque microplate (1.5 × 10^4 cells/well), were treated for 72 h at 37 °C with a wide range concentration (500–1.95 µM) of the pyrazole derivatives. The cell viability was determined by measuring ATP levels using the CellTiter Glo Kit (Promega Corporation, Madison, WI, EUA) followed by reading the luminescent signal on the Glomax-Multi Detection plate reader (Promega Corporation, Madison, WI, EUA)). All treatments and controls were performed at a low concentration of DMSO (≤1%). The 50% cytotoxic concentration values (CC50; the concentration of the compound that reduces 50% of the cell viability) were estimated by linear regression analysis. Three independent assays were performed in duplicate.

[3] = test system: trypomastigote forms of T. cruzi; assay: Phenotypic screening against T. cruzi trypomastigotes (Dm28c-Luc, luciferase viability, 24 h); type: cell-based, Trypanosoma cruzi; details: for IC50 / IC90: Trypanosoma cruzi, Dm28c-Luc, 24 h; for IC50: read-out: Trypanocidal Activity Trypomastigotes IC50; for IC90: read-out: Trypanocidal Activity Trypomastigotes IC90
Excerpt: as §1
The phenotypic compound screening was performed using transgenic T. cruzi parasites expressing the firefly luciferase (Dm28c-Luc). Trypomastigotes (1 × 10^6 parasites/well) were treated for 24 h at 37 °C with the pyrazole derivatives and Bz (0.04–100 μM), followed by incubation with luciferin substrate (300 µg/mL) to determine parasite viability through luciferase activity. The concentration that reduces the number of viable parasites by 50% (IC50) or 90% (IC90) was calculated by linear regression. The luminescent signal was read on a Glomax-Multi Detection plate reader (Promega Corporation, Madison, WI, EUA)). At least three independent assays were performed in duplicate.

[4] = 72 h, Vero cells infected with Dm28c-Luc, 72 h, read-out: Trypanocidal Activity Intracellular Amastigotes IC50
[5] = negative log of the IC50 value in molar, read-out: Intracellular Amastigotes pIC50 (converted)
[6] = Vero cells infected with Dm28c-Luc, 72 h

Row | Compound | melting point [°C] | Intracellular Amastigotes SI [1] | IC50 [1, 4] [µM] | IC50 [1, 5] [µM] | IC90 [1, 6] [µM] | CC50 at 72 h [2] [µM] | IC50 [3] [µM] | fold drop in activity on moving Cl or Br to the meta position [1] | IC90 [3] [µM] | Trypomastigotes SI ([3]; CC50 of Vero cells/IC50 of trypomastigote)
1 | Clc1ccc(-n2cc(C3=NCCN3)cn2)c(Cl)c1 [Compound 3c, 1-(2,4-dichlorophenyl)-4-(4,5-dihydro-1H-imidazol-2-yl)-1H-pyrazole] | 110 to 111 | 7.21 | 56.6 ± 2.52 | 56.2 | 94.6 ± 3.61 | 409 ± 16.2 | > 100 | – | – | –
2 | Brc1cccc(-n2cc(C3=NCCN3)cn2)c1 [Compound 3k, 1-(3-bromophenyl)-4-(4,5-dihydro-1H-imidazol-2-yl)-1H-pyrazole] | 116 to 120 | 7.84 | 26.9 ± 2.19 | 26.9 | 72.9 ± 3.67 | 211 ± 31.7 | > 100 | 10 fold | – | –
3 | Clc1cccc(-n2cc(C3=NCCN3)cn2)c1 [Compound 3b, 1-(3-chlorophenyl)-4-(4,5-dihydro-1H-imidazol-2-yl)-1H-pyrazole] | 120 to 124 | 9.48 | 28.2 ± 1.81 | 28.2 | 86.6 ± 5.55 | 267 ± 28.1 | > 100 | five | – | –
4 | Fc1cccc(-n2cc(C3=NCCN3)cn2)c1 [Compound 3i, 4-(4,5-dihydro-1H-imidazol-2-yl)-1-(3-fluorophenyl)-1H-pyrazole] | 164 to 167 | – | 64.1 ± 7.09 | 64.6 | > 100 | > 500 | > 100 | – | – | –
5 | Cc1nn(-c2ccc(Cl)c(Cl)c2)c(N)c1C1=NCCN1 [Compound 4c, 5-amino-1-(3,4-dichlorophenyl)-3-methyl-4-(4,5-dihydro-1H-imidazol-2-yl)-1H-pyrazole] | 221 to 224 | 3.78 | 93.8 ± 16.4 | 93.3 | > 100 | 355 ± 17.7 | > 100 | – | > 100 | –
6 | Cc1nn(-c2cc(Cl)cc(Cl)c2)c(N)c1C1=NCCN1 [Compound 4b, 5-amino-1-(3,5-dichlorophenyl)-3-methyl-4-(4,5-dihydro-1H-imidazol-2-yl)-1H-pyrazole] | 193 to 194 | >5.51 | 90.7 ± 13.2 | 91.2 | > 100 | > 500 | > 100 | – | > 100 | –
7 | Clc1cccc(Cl)c1-n1cc(C2=NCCN2)cn1 [Compound 3f, 1-(2,6-dichlorophenyl)-4-(4,5-dihydro-1H-imidazol-2-yl)-1H-pyrazole] | 221 to 223 | >6 | 82 ± 2.52 | 81.3 | > 100 | > 500 | > 100 | – | – | –
8 | CC1CN=C(c2cnn(-c3cc(Cl)cc(Cl)c3)c2N)N1 (stereo not drawn) [Compound 5b, 5-amino-1-(3,5-dichlorophenyl)-4-(4-(5)-methyl-4,5-dihydro-1H-imidazol-2-yl)-1H-pyrazole] | 189 to 192 | >15.17 | 33 ± 8.84 | 33.1 | > 100 | > 500 | > 100 | – | > 100 | –
9 | Clc1cc(Cl)cc(-n2cc(C3=NCCN3)cn2)c1 [Compound 3d, 1-(3,5-dichlorophenyl)-4-(4,5-dihydro-1H-imidazol-2-yl)-1H-pyrazole] | 83 to 84 | 6.99 | 54.9 ± 7.12 | 55 | > 100 | 384 ± 23 | 66.3 ± 5.53 | – | 93.5 ± 1.56 | 5.78
